According to the NIST ThermoML archive (doi:10.1021/je4001894):
± gives the expanded uncertainty stated by the source.

Test: activity coefficient (dimensionless); of the first substance listed, at infinite dilution; xn = mol fraction of the nth substance listed
Settings: 101 kPa, Liquid, Chromatography, x1 = 0

Q: Which activity coefficient (323.15 K) does the source give for `C#CCCCC` [1-hexyne] + CCCC[N+]1(C)CCCC1.O=S(=O)([N-]S(=O)(=O)C(F)(F)F)C(F)(F)F here?
A: Its activity coefficient is 2.89 ± 0.2.

Q: What about the activity coefficient (333.15 K) of the same compound?
A: Its activity coefficient is 2.87 ± 0.2.

Q: And the activity coefficient (343.15 K)?
A: The activity coefficient was 2.83 ± 0.19.

Q: What does the source list for `CC1CCCCC1` [methylcyclohexane] + CCC[N+]1(C)CCCC1.O=S(=O)([N-]S(=O)(=O)C(F)(F)F)C(F)(F)F?
A: activity coefficient (323.15 K): 14.1 ± 0.96; activity coefficient (333.15 K): 12.8 ± 0.87; activity coefficient (343.15 K): 12.2 ± 0.83

Q: What does the source list for `c1ccsc1` [thiophene] + CCCC[N+]1(C)CCCC1.O=S(=O)([N-]S(=O)(=O)C(F)(F)F)C(F)(F)F?
A: activity coefficient (323.15 K): 0.82 ± 0.05; activity coefficient (333.15 K): 0.83 ± 0.05; activity coefficient (343.15 K): 0.84 ± 0.05

Q: Which activity coefficient (323.15 K) does the source give for `CCCCCCCCC` [nonane] + CCCC[N+]1(C)CCCC1.O=S(=O)([N-]S(=O)(=O)C(F)(F)F)C(F)(F)F here?
A: The activity coefficient was 42.7 ± 2.9.

Q: And the activity coefficient (333.15 K)?
A: Its activity coefficient is 38.3 ± 2.6.

Q: What about the activity coefficient (343.15 K) of the same compound?
A: Its activity coefficient is 34.7 ± 2.4.

Q: For `C=CCCCC` [hex-1-ene] + CCCC[N+]1(C)CCCC1.O=S(=O)([N-]S(=O)(=O)C(F)(F)F)C(F)(F)F, which activity coefficient (323.15 K) is on record?
A: Its activity coefficient is 7.51 ± 0.51.

Q: And the activity coefficient (333.15 K)?
A: The activity coefficient was 7.21 ± 0.49.

Q: What about the activity coefficient (343.15 K) of the same compound?
A: Its activity coefficient is 7.12 ± 0.49.

Q: For `C1COCCO1` [1,4-dioxane] + CCC[N+]1(C)CCCC1.O=S(=O)([N-]S(=O)(=O)C(F)(F)F)C(F)(F)F, which activity coefficient (323.15 K) is on record?
A: The activity coefficient was 0.74 ± 0.05.

Q: And the activity coefficient (333.15 K)?
A: Its activity coefficient is 0.74 ± 0.05.

Q: And the activity coefficient (343.15 K)?
A: The activity coefficient was 0.76 ± 0.05.

Q: Which results are given for `c1ccncc1` [pyridine] + CCC[N+]1(C)CCCC1.O=S(=O)([N-]S(=O)(=O)C(F)(F)F)C(F)(F)F?
A: activity coefficient (323.15 K): 0.63 ± 0.04; activity coefficient (333.15 K): 0.63 ± 0.04; activity coefficient (343.15 K): 0.64 ± 0.04

Q: For `CO` [methanol] + CCC[N+]1(C)CCCC1.O=S(=O)([N-]S(=O)(=O)C(F)(F)F)C(F)(F)F, which activity coefficient (323.15 K) is on record?
A: The activity coefficient was 1.38 ± 0.09.

Q: What about the activity coefficient (333.15 K) of the same compound?
A: The activity coefficient was 1.28 ± 0.08.

Q: What about the activity coefficient (343.15 K) of the same compound?
A: Its activity coefficient is 1.15 ± 0.07.

Q: With `C=CCCCC` [hex-1-ene] + CCC[N+]1(C)CCCC1.O=S(=O)([N-]S(=O)(=O)C(F)(F)F)C(F)(F)F as the compound, how does the activity coefficient (323.15 K) read?
A: Its activity coefficient is 7.96 ± 0.54.

Q: And the activity coefficient (333.15 K)?
A: Its activity coefficient is 7.75 ± 0.53.

Q: And the activity coefficient (343.15 K)?
A: The activity coefficient was 7.65 ± 0.52.

Q: With `CCCCCCCCC` [nonane] + CCC[N+]1(C)CCCC1.O=S(=O)([N-]S(=O)(=O)C(F)(F)F)C(F)(F)F as the compound, how does the activity coefficient (323.15 K) read?
A: Its activity coefficient is 55.5 ± 3.8.

Q: What about the activity coefficient (333.15 K) of the same compound?
A: Its activity coefficient is 48.7 ± 3.3.

Q: And the activity coefficient (343.15 K)?
A: The activity coefficient was 47.5 ± 3.2.

Q: What does the source list for `CCCCCCCCCC` [decane] + CCC[N+]1(C)CCCC1.O=S(=O)([N-]S(=O)(=O)C(F)(F)F)C(F)(F)F?
A: activity coefficient (323.15 K): 74.7 ± 5.1; activity coefficient (333.15 K): 65.7 ± 4.5; activity coefficient (343.15 K): 60 ± 4.1

Q: Which results are given for `CCN(CC)CC` [triethylamine] + CCC[N+]1(C)CCCC1.O=S(=O)([N-]S(=O)(=O)C(F)(F)F)C(F)(F)F?
A: activity coefficient (323.15 K): 8.98 ± 0.61; activity coefficient (333.15 K): 8.1 ± 0.55; activity coefficient (343.15 K): 7.19 ± 0.49

Q: For `CCO` [ethanol] + CCC[N+]1(C)CCCC1.O=S(=O)([N-]S(=O)(=O)C(F)(F)F)C(F)(F)F, which activity coefficient (323.15 K) is on record?
A: The activity coefficient was 1.75 ± 0.12.

Q: What about the activity coefficient (333.15 K) of the same compound?
A: The activity coefficient was 1.57 ± 0.1.

Q: And the activity coefficient (343.15 K)?
A: Its activity coefficient is 1.49 ± 0.1.

Q: Which activity coefficient (323.15 K) does the source give for `CCCCCC` [hexane] + CCC[N+]1(C)CCCC1.O=S(=O)([N-]S(=O)(=O)C(F)(F)F)C(F)(F)F here?
A: Its activity coefficient is 16.5 ± 1.1.

Q: And the activity coefficient (333.15 K)?
A: Its activity coefficient is 15 ± 1.

Q: And the activity coefficient (343.15 K)?
A: The activity coefficient was 14.1 ± 0.96.

Q: For `Cc1ccccc1` [toluene] + CCCC[N+]1(C)CCCC1.O=S(=O)([N-]S(=O)(=O)C(F)(F)F)C(F)(F)F, which activity coefficient (323.15 K) is on record?
A: The activity coefficient was 1.25 ± 0.08.

Q: What about the activity coefficient (333.15 K) of the same compound?
A: The activity coefficient was 1.27 ± 0.08.

Q: What about the activity coefficient (343.15 K) of the same compound?
A: Its activity coefficient is 1.29 ± 0.08.

Q: Which activity coefficient (323.15 K) does the source give for `CCO` [ethanol] + CCCC[N+]1(C)CCCC1.O=S(=O)([N-]S(=O)(=O)C(F)(F)F)C(F)(F)F here?
A: Its activity coefficient is 1.73 ± 0.12.

Q: And the activity coefficient (333.15 K)?
A: Its activity coefficient is 1.57 ± 0.1.

Q: And the activity coefficient (343.15 K)?
A: Its activity coefficient is 1.43 ± 0.09.

Q: What does the source list for `CC1CCCC1` [methylcyclopentane] + CCCC[N+]1(C)CCCC1.O=S(=O)([N-]S(=O)(=O)C(F)(F)F)C(F)(F)F?
A: activity coefficient (323.15 K): 8.68 ± 0.59; activity coefficient (333.15 K): 8.24 ± 0.56; activity coefficient (343.15 K): 7.85 ± 0.54

Q: For `CC(C)CC(C)(C)C` [2,2,4-trimethylpentane] + CCCC[N+]1(C)CCCC1.O=S(=O)([N-]S(=O)(=O)C(F)(F)F)C(F)(F)F, which activity coefficient (323.15 K) is on record?
A: The activity coefficient was 19.2 ± 1.3.

Q: And the activity coefficient (333.15 K)?
A: The activity coefficient was 17.9 ± 1.2.

Q: What about the activity coefficient (343.15 K) of the same compound?
A: Its activity coefficient is 17.1 ± 1.2.

Q: What does the source list for `CCCCCCCC` [octane] + CCCC[N+]1(C)CCCC1.O=S(=O)([N-]S(=O)(=O)C(F)(F)F)C(F)(F)F?
A: activity coefficient (323.15 K): 28.2 ± 1.9; activity coefficient (333.15 K): 25.3 ± 1.7; activity coefficient (343.15 K): 23.5 ± 1.6

Q: With `CCCC(C)=O` [pentan-2-one] + CCCC[N+]1(C)CCCC1.O=S(=O)([N-]S(=O)(=O)C(F)(F)F)C(F)(F)F as the compound, how does the activity coefficient (323.15 K) read?
A: The activity coefficient was 0.8 ± 0.05.

Q: What about the activity coefficient (333.15 K) of the same compound?
A: The activity coefficient was 0.81 ± 0.05.

Q: What about the activity coefficient (343.15 K) of the same compound?
A: The activity coefficient was 0.82 ± 0.05.

Q: What does the source list for `CCCCCCCCCCC` [undecane] + CCCC[N+]1(C)CCCC1.O=S(=O)([N-]S(=O)(=O)C(F)(F)F)C(F)(F)F?
A: activity coefficient (323.15 K): 76.9 ± 5.3; activity coefficient (333.15 K): 68.2 ± 4.7; activity coefficient (343.15 K): 61.1 ± 4.2

Q: Which activity coefficient (323.15 K) does the source give for `CCC(C)CC` [3-methylpentane] + CCCC[N+]1(C)CCCC1.O=S(=O)([N-]S(=O)(=O)C(F)(F)F)C(F)(F)F here?
A: Its activity coefficient is 12.3 ± 0.84.

Q: What about the activity coefficient (333.15 K) of the same compound?
A: The activity coefficient was 11.9 ± 0.81.

Q: And the activity coefficient (343.15 K)?
A: Its activity coefficient is 11 ± 0.75.

Q: For `ClC(Cl)Cl` [trichloromethane] + CCC[N+]1(C)CCCC1.O=S(=O)([N-]S(=O)(=O)C(F)(F)F)C(F)(F)F, which activity coefficient (323.15 K) is on record?
A: The activity coefficient was 0.85 ± 0.05.

Q: And the activity coefficient (333.15 K)?
A: The activity coefficient was 0.91 ± 0.06.

Q: And the activity coefficient (343.15 K)?
A: The activity coefficient was 0.96 ± 0.06.
